Source: patent publication US20090093054A1, “CRYOPRESERVATION OF HUMAN BLASTOCYST-DERIVED STEM CELLS BY USE OF A CLOSED STRAW VITRIFICATION METHOD” (Cellartis AB, priority 2003, published 2009)
Where “and” joins values, the source holds several entries; their conditions need not be identical. Equal entries are not always repeated.

Key:
[1] = test system: Human BS cell line SA121; test: Thawing recovery after closed straw vitrification and devitrification, cell line SA121; format: cell-based; conditions: for Thawing recovery (SA121): viable colonies / pieces vitrified per closed straw, 48 h after seeding; for Thawing recovery, trehalose compared with sucrose: same molar concentration in vitrification and devitrification medium; for Thawing recovery: viable thawed colonies / hBS cell pieces originally vitrified, per individual closed straw, 48 h after seeding on MEF, sugar in vitrification and devitrification medium, same molar concentration for both
Experimental: Two solutions A and B are prepared (Solution A: Sterile filtered 10% Ethylene glycol, 10% DMSO in Cryo-PBS; Solution B: Sterile filtered 0.3M Trehalose, 20% Ethylene glycol, 10% DMSO in Cryo-PBS) Selected colonies of human blastocyst-derived stem cells, which display proper morphology, are cut in the same way as when the cells are cut for regular passage using a stem cell cutting tool (Swemed Labs International, BilIdal, Sweden). The cell pieces should be about 0.1-0.4 mm×0.1-0.4 mm in size. The cell pieces are incubated first in 500 μl preheated (37° C.) Solution A for 1 min and then transferred to 25 μl Solution B and incubated for 30 s and then transferred again to a fresh drop of Solution B and incubated for 30 s. The volume is about 40-50 μl. About 10 cell pieces are aspirated into a straw prepared for vitrification and the straw is then closed with a bond. The straw is plunged into liquid nitrogen.
Two solutions C and D are prepared (Solution C: Sterile filtered 0.2M Trehalose in Cryo-PBS.; Solution D: Sterile filtered 0.1 M Trehalose in Cryo-PBS). Solutions C and D and hBS-medium are preheated at 37° C. A closed straw containing vitrified hBS cells (about 10 cell pieces) is removed from the liquid nitrogen tank. The straw is keep at room temperature for 10 s and then quickly thawed in a 40° C. water bath (within seconds). The straw is cut open in the plugged end using an autoclaved pair of scissors and the content pushed out from the straw into solution C using a syringe. The hBS cells are incubated for 1 min in 500 μl solution C and the transferred to 500 μl solution D and incubated for 5 min. Under a stero-microscope the hBS cell pieces are quickly rinsed in hBS medium and then seeded in a culture dish on top of mouse embryonic feeder cells in hBS medium. The cells are then cultured (incubated at 37° C.) and the number of established new colonies are counted and passaged in order to verify the viability of the hBS cells after vitrification. The recovery of viable cells following this vitrifying and thawing procedures is normally in the range of 70-100%.
Human BS cells (cell line SA121) were vitrified and thawed either following the procedure described in Example 1 & 2 or following the procedure described in Example 1 and 2 with the exception that trehalose was used in the vitrification and devitrification medium was replaced by sucrose in the same molar concentration as used for trehalose. Forty-eight hours after seeding in culture dishes on top of mouse embryonic feeder cells the hBS cell colonies were evaluated and counted. The thawing recovery was calculated as the ratio between the number of viable thawed colonies (displaying appropriate hBS cell morphology) and the number of hBS cell pieces originally vitrified. […]
Human BS cells (cell line SA121) were vitrified and thawed following the procedure described in Example 1 & 2 with the exception that trehalose was used in two different concentrations (0.3M and 0.5M) in the second vitrification solution (solution B). When 0.3 M trehalose was used in solution B, solution C contained 0.2 M trehalose and solution D contained 0.1 M trehalose. When 0.5 M trehalose was used in solution B, solution C contained 0.4 M trehalose and solution D contained 0.2 M trehalose. Forty-eight hours after seeding in culture dishes on top of mouse embryonic feeder cells the hBS cell colonies were evaluated and counted. The thawing recovery was calculated as the ratio between the number of viable thawed colonies (displaying appropriate hBS cell morphology) and the number of hBS cell pieces originally vitrified. Two separate experiments using two different human BS cell lines were performed. Three straws were prepared and evaluated per cell line and the results are presented below for each individual straw.

[2] = test system: Human BS cell line SA002; test: Thawing recovery after closed straw vitrification and devitrification, cell line SA002; format: cell-based; conditions: viable colonies / pieces vitrified per closed straw, 48 h after seeding
[3] = 0.3M trehalose in solution B (C 0.2 M, D 0.1 M)
[4] = 0.5M trehalose in solution B (C 0.4 M, D 0.2 M)

Row | Structure (SMILES) | Thawing recovery (SA121) [1, 3] | Thawing recovery (SA121) [1, 4] | Thawing recovery, 0.5 M compared with 0.3 M trehalose in solution B ([1]; cell lines SA121 and SA002, result in words) | Thawing recovery, trehalose compared with sucrose ([1]; result in words) | Thawing recovery [1] | Thawing recovery (SA002) [2, 3] | Thawing recovery (SA002) [2, 4]
1 | OC[C@H]1O[C@H](O[C@H]2O[C@H](CO)[C@@H](O)[C@H](O)[C@H]2O)[C@H](O)[C@@H](O)[C@@H]1O [Trehalose] | 6/10 and 5/10 | 8/10 and 9/10 and 8/8 | seems to work better | no significant difference | 5/9 and 8/10 and 6/10 | 5/8 and 6/8 and 7/7 | 7/8 and 8/8 and 5/7
2 | OC[C@H]1O[C@@](CO)(O[C@H]2O[C@H](CO)[C@@H](O)[C@H](O)[C@H]2O)[C@@H](O)[C@@H]1O [Sucrose] | – | – | – | no significant difference | 8/10 and 5/10 and 9/10 | – | –
